Test system: Energy system protein genes
Test: DNA chip mRNA expression in yeast, energy system protein genes (Table 4)
Type: cell-based, Saccharomyces cerevisiae S288C
Procedure: Yeast (Saccharomyces cerevisiae S288C (α SUC2mal mel gap2 CUP1)) were incubated at 25° C. on YPD medium (yeast extract 1%, polypepton 2%, glucose 2%). One of toxic chemical substances was added to the cells at logarithmic growth phase, and the cells were further incubated for two hours. Cells were cultured without any chemical substance in the same condition, and were used as control. Concentrations of the chemical substances were defined to inhibit the growth of the yeast but not lead to death.
After completion of the incubation, the culture was centrifuged to collect the cells. To the cells, sodium acetate buffer (50 mM sodium acetate, 10 mM EDTA, 1% SDS) was added, and the mixture was shaken at 65° C. for five minutes, followed by returning to room temperature, and obtaining the supernatant, of which the procedures were repeated two times. To the supernatant, ½ amount of a solution of phenol/chloroform was added, and the mixture was centrifuged to give a supernatant, which was added with an equal amount of chloroform, and the mixture was centrifuged to give a supernatant. To the supernatant, an equal amount of isopropanol containing 0.3 M sodium acetate was added, and the mixture was allowed to stand at room temperature for 30 minutes, after which the mixture was centrifuged to give a sediment of the whole RNAs. Seventy % ethanol was added to the sediment, and the mixture was again centrifuged to give a sediment, which was then dried and dissolved in water. mRNA was isolated from the whole RNAs as followings. In view of the fact that a poly A chain is attached to the 3′ terminus of mRNA, a polynucleotide having a poly T structure which was immobilized on the surface of latex beads was used to trap the mRNA, and then the mRNA was washed and eluted with spine column (Oligotex-dT30<Super>mRNA Purification Kit, Takara). Reverse transcription of the mRNA was conducted with a reverse transcriptase (Super Script II Reverse Transcriptase; catalogue No. 18064-014, GibcoBRL) using fluorescence-labeled nucleotides to give cDNAs that were introduced with Cy3-dUTP or Cy5-dUTP during the reverse transcription.
The labeled cDNAs were dissolved in TE buffer (10mM Tris-HCl/1 mM EDTA, pH8.0), and the solution was dropped on the DNA chip containing the whole genes of yeast (DNA Chip Research Inc. Japan) so that the cDNAs were hybridized on the DNA chip at 65° C. for over 12 hours. The fluoresces intensity of the DNA chip was read with a scanner, and the ratio relative to the fluorescence intensity resulting from the absence of chemical substance was estimated as the following, which is shown in Tables 1 to 9: […]

## [Cl][Pb][Cl] [(4), PbCl2]
Yeast gene YJR048W
  The level of expressed mRNA in the presence of chemical substance/The level of expressed mRNA in the absence of chemical substance: 1.4
Yeast gene YJR121W, cells incubated two hours with the chemical substance
  The level of expressed mRNA in the presence of chemical substance/The level of expressed mRNA in the absence of chemical substance: 1.0
Yeast gene YJR155W
  The level of expressed mRNA in the presence of chemical substance/The level of expressed mRNA in the absence of chemical substance: 2.5
Yeast gene YKL016C, cells incubated two hours with the chemical substance
  The level of expressed mRNA in the presence of chemical substance/The level of expressed mRNA in the absence of chemical substance: 1.7
Yeast gene YKL060C, cells incubated two hours with the chemical substance
  The level of expressed mRNA in the presence of chemical substance/The level of expressed mRNA in the absence of chemical substance: 1.0
Yeast gene YKL141W, cells incubated two hours with the chemical substance
  The level of expressed mRNA in the presence of chemical substance/The level of expressed mRNA in the absence of chemical substance: 1.7
Yeast gene YKL148C, cells incubated two hours with the chemical substance
  The level of expressed mRNA in the presence of chemical substance/The level of expressed mRNA in the absence of chemical substance: 0.7
Yeast gene YKR009C, cells incubated two hours with the chemical substance
  The level of expressed mRNA in the presence of chemical substance/The level of expressed mRNA in the absence of chemical substance: 0.9
Yeast gene YKR058W, cells incubated two hours with the chemical substance, 25° C., YPD medium
  The level of expressed mRNA in the presence of chemical substance/The level of expressed mRNA in the absence of chemical substance: 1.9
Yeast gene YKR097W
  The level of expressed mRNA in the presence of chemical substance/The level of expressed mRNA in the absence of chemical substance: 3.3
Yeast gene YLL041C, cells incubated two hours with the chemical substance
  The level of expressed mRNA in the presence of chemical substance/The level of expressed mRNA in the absence of chemical substance: 1.0
Yeast gene YLR038C, cells incubated two hours with the chemical substance
  The level of expressed mRNA in the presence of chemical substance/The level of expressed mRNA in the absence of chemical substance: 2.1
Yeast gene YLR044C, cells incubated two hours with the chemical substance
  The level of expressed mRNA in the presence of chemical substance/The level of expressed mRNA in the absence of chemical substance: 0.9
Yeast gene YLR134W, cells incubated two hours with the chemical substance
  The level of expressed mRNA in the presence of chemical substance/The level of expressed mRNA in the absence of chemical substance: 0.8
Yeast gene YLR258W, cells incubated two hours with the chemical substance
  The level of expressed mRNA in the presence of chemical substance/The level of expressed mRNA in the absence of chemical substance: 3.5
Yeast gene YLR284C, cells incubated two hours with the chemical substance
  The level of expressed mRNA in the presence of chemical substance/The level of expressed mRNA in the absence of chemical substance: 1.9
Yeast gene YLR295C, cells incubated two hours with the chemical substance, 25° C., YPD medium
  The level of expressed mRNA in the presence of chemical substance/The level of expressed mRNA in the absence of chemical substance: 1.7
Yeast gene YLR304C, cells incubated two hours with the chemical substance
  The level of expressed mRNA in the presence of chemical substance/The level of expressed mRNA in the absence of chemical substance: 0.7
Yeast gene YLR345W
  The level of expressed mRNA in the presence of chemical substance/The level of expressed mRNA in the absence of chemical substance: 1.2
Yeast gene YLR354C, cells incubated two hours with the chemical substance
  The level of expressed mRNA in the presence of chemical substance/The level of expressed mRNA in the absence of chemical substance: 1.5
Yeast gene YLR377C, cells incubated two hours with the chemical substance
  The level of expressed mRNA in the presence of chemical substance/The level of expressed mRNA in the absence of chemical substance: 1.2
Yeast gene YLR395C, cells incubated two hours with the chemical substance
  The level of expressed mRNA in the presence of chemical substance/The level of expressed mRNA in the absence of chemical substance: 1.9
Yeast gene YML087C
  The level of expressed mRNA in the presence of chemical substance/The level of expressed mRNA in the absence of chemical substance: 2.5
Yeast gene YML120C, cells incubated two hours with the chemical substance
  The level of expressed mRNA in the presence of chemical substance/The level of expressed mRNA in the absence of chemical substance: 1.9
Yeast gene YML129C, cells incubated two hours with the chemical substance
  The level of expressed mRNA in the presence of chemical substance/The level of expressed mRNA in the absence of chemical substance: 1.2
Yeast gene YMR073C, cells incubated two hours with the chemical substance
  The level of expressed mRNA in the presence of chemical substance/The level of expressed mRNA in the absence of chemical substance: 1.5
Yeast gene YMR118C
  The level of expressed mRNA in the presence of chemical substance/The level of expressed mRNA in the absence of chemical substance: 1.6
Yeast gene YMR205C, cells incubated two hours with the chemical substance
  The level of expressed mRNA in the presence of chemical substance/The level of expressed mRNA in the absence of chemical substance: 0.8
Yeast gene YMR261C, cells incubated two hours with the chemical substance
  The level of expressed mRNA in the presence of chemical substance/The level of expressed mRNA in the absence of chemical substance: 0.8
Yeast gene YMR267W, cells incubated two hours with the chemical substance, 25° C., YPD medium
  The level of expressed mRNA in the presence of chemical substance/The level of expressed mRNA in the absence of chemical substance: 0.9
Yeast gene YMR323W, cells incubated two hours with the chemical substance
  The level of expressed mRNA in the presence of chemical substance/The level of expressed mRNA in the absence of chemical substance: 1.1
Yeast gene YNL071W
  The level of expressed mRNA in the presence of chemical substance/The level of expressed mRNA in the absence of chemical substance: 1.5
Yeast gene YNL202W, cells incubated two hours with the chemical substance
  The level of expressed mRNA in the presence of chemical substance/The level of expressed mRNA in the absence of chemical substance: 1.7
Yeast gene YNL241C
  The level of expressed mRNA in the presence of chemical substance/The level of expressed mRNA in the absence of chemical substance: 1.0
Yeast gene YNL331C
  The level of expressed mRNA in the presence of chemical substance/The level of expressed mRNA in the absence of chemical substance: 1.0
Yeast gene YOL086C, cells incubated two hours with the chemical substance
  The level of expressed mRNA in the presence of chemical substance/The level of expressed mRNA in the absence of chemical substance: 1.1
Yeast gene YOL165C
  The level of expressed mRNA in the presence of chemical substance/The level of expressed mRNA in the absence of chemical substance: 0.9
Yeast gene YOR142W, cells incubated two hours with the chemical substance
  The level of expressed mRNA in the presence of chemical substance/The level of expressed mRNA in the absence of chemical substance: 1.0
Yeast gene YOR178C, cells incubated two hours with the chemical substance
  The level of expressed mRNA in the presence of chemical substance/The level of expressed mRNA in the absence of chemical substance: 2.3
Yeast gene YOR388C, cells incubated two hours with the chemical substance
  The level of expressed mRNA in the presence of chemical substance/The level of expressed mRNA in the absence of chemical substance: 4.7
Yeast gene YPL031C, cells incubated two hours with the chemical substance
  The level of expressed mRNA in the presence of chemical substance/The level of expressed mRNA in the absence of chemical substance: 0.8
Yeast gene YPL061W, cells incubated two hours with the chemical substance
  The level of expressed mRNA in the presence of chemical substance/The level of expressed mRNA in the absence of chemical substance: 1.3
Yeast gene YPL088W
  The level of expressed mRNA in the presence of chemical substance/The level of expressed mRNA in the absence of chemical substance: 2.5
Yeast gene YPL171C
  The level of expressed mRNA in the presence of chemical substance/The level of expressed mRNA in the absence of chemical substance: 2.2
Yeast gene YPL240C
  The level of expressed mRNA in the presence of chemical substance/The level of expressed mRNA in the absence of chemical substance: 0.9
Yeast gene YPL262W, cells incubated two hours with the chemical substance
  The level of expressed mRNA in the presence of chemical substance/The level of expressed mRNA in the absence of chemical substance: 1.2
Yeast gene YPL275W, cells incubated two hours with the chemical substance
  The level of expressed mRNA in the presence of chemical substance/The level of expressed mRNA in the absence of chemical substance: 5.1
Yeast gene YPL276W, cells incubated two hours with the chemical substance
  The level of expressed mRNA in the presence of chemical substance/The level of expressed mRNA in the absence of chemical substance: 3.0
Yeast gene YPR048W, cells incubated two hours with the chemical substance
  The level of expressed mRNA in the presence of chemical substance/The level of expressed mRNA in the absence of chemical substance: 1.1
Yeast gene YPR184W, cells incubated two hours with the chemical substance
  The level of expressed mRNA in the presence of chemical substance/The level of expressed mRNA in the absence of chemical substance: 2.2
